This passage reports MIC results from DBAASP.

Test systems include Micrococcus luteus A270; Candida krusei IOC 4559; Escherichia coli SBS 363; Fusarium oxysporum; Carnobacterium mobile; Escherichia coli IP76-24.
What all share (experiment): ≥ marks a high value that may be exact or a test limit, other limits are often not marked, values filed in µg/mL are converted to µM
In assay [1] the test system is Trichosporon sp. IOC 4569.
For assay [2], the system named is Aspergillus fumigatus IOC 4526.
For assay [3], the system named is Pseudomonas aeruginosa ATCC 27853.
Assay [4] concerns Staphylococcus aureus ATCC 29213.
For assay [5], the system named is Cryptococcus neoformans IOC 4528.
The test system of assay [6] is Candida albicans IOC 4558.
Assay [7] concerns Trichophyton rubrum IOC 4527.
Assay [8] concerns Candida tropicalis IOC 4560.
The subject of assay [9] is Candida parapsilosis IOC 4564.
In assay [10] the test system is Candida albicans ATCC 36802.
Assay [11] relates to Cryptococcus neoformans ATCC 90112.
In assay [12] the test system is Candida glabrata IOC 4565.
Assay [13] relates to Bacillus subtilis PCI 219.
Assay [14] concerns Escherichia coli NIHJ JC-2.
Assay [15] concerns Pseudomonas aeruginosa U-31.
Assay [16] concerns Staphylococcus aureus FDA 209P.
Assay [17] concerns Staphylococcus aureus NBRC 12732.
Assay [18] has as its system Micrococcus luteus NBRC 12708.
Assay [19] relates to Cryptococcus neoformans IP960-67.
Assay [20] concerns Trichophyton simii IP1063-74.
For assay [21], the system named is Saccharomyces cerevisiae IP118079.
The test system of assay [22] is Staphylococcus aureus IP76-25.
In assay [23] the test system is Nocardia brasiliensis IP16-80.
For assay [24], the system named is Candida albicans IP884-65.
The subject of assay [25] is Enterococcus faecalis IP103214.
Assay [26] relates to Aeromonas caviae IP67-16T.
Assay [27] relates to Aspergillus niger IP218-53.
Assay [28] relates to Aspergillus fumigatus IP1025-70.
Assay [29] deals with Escherichia coli NBRC 12734.
The test system of assay [30] is Bacillus megaterium ATCC 19213.
Assay [31] deals with Serratia marcescens NBRC 3046.
For assay [32], the system named is Klebsiella pneumoniae NBRC 3317.
The test system of assay [33] is Bacillus subtilis NBRC 3513.
Assay [34] deals with Salmonella typhimurium NBRC 12529.
For assay [35], the system named is Pseudomonas aeruginosa NBRC 3080.
Assay [36] concerns Staphylococcus epidermidis NBRC 12933.
The test system of assay [37] is Enterococcus faecalis NBRC 3989.

In brackets after ≈: the same amount, converted by molar mass.

Consider `CSCC[C@H](NC(=O)[C@@H](N)CCCCN)C(=O)N[C@@H](CC(=O)O)C(=O)N[C@@H](CO)C(=O)N[C@@H](CCCN=C(N)N)C(=O)N[C@@H](Cc1c[nH]c2ccccc12)C(=O)N[C@@H](CCCN=C(N)N)C(=O)N[C@@H](Cc1c[nH]c2ccccc12)C(=O)N[C@@H](CCCCN)C(=O)N[C@@H](CO)C(=O)N[C@@H](CO)C(=O)N[C@@H](CCCCN)C(=O)N[C@@H](CCCCN)C(=O)O` [KMDSRWRWKSSKK], for which the minimal inhibitory concentration (MIC) in assay [1] was at least 32.8 µM; in assay [2], at least 58 µM; against Micrococcus luteus A270 it was 4.92 µM (≈ 8.49 µg/mL); in assay [3] it was 16.4 µM (≈ 28.3 µg/mL); in assay [4] it was above 23.2 µM; in assay [5], 4.92 µM (≈ 8.49 µg/mL). Also, the MIC is at least 46.4 µM in [6]; at least 58 µM in assay [7]; at least 46.4 µM in assay [8]; at least 46.4 µM in assay [9]; at least 58 µM in [10]; 4.92 µM (≈ 8.49 µg/mL) in [11]. Further, the minimum inhibitory concentration (MIC) is at least 46.4 µM in [12], at least 32.8 µM in the assay on Candida krusei IOC 4559 and at least 46.4 µM in the assay with Escherichia coli SBS 363.
`CC(C)C[C@H](NC(=O)[C@H](CC(C)C)NC(=O)[C@H](CCCCN)NC(=O)[C@H](CC(C)C)NC(=O)[C@H](CC(C)C)NC(=O)[C@H](CCCCN)NC(=O)[C@H](CCCCN)NC(=O)[C@H](Cc1c[nH]c2ccccc12)NC(=O)[C@H](CC(C)C)NC(=O)[C@H](CCCCN)NC(=O)[C@H](CC(C)C)NC(=O)[C@H](CC(C)C)NC(=O)[C@H](CC(C)C)NC(=O)[C@H](CCCCN)NC(=O)[C@H](CC(C)C)NC(=O)[C@H](CC(C)C)NC(=O)[C@@H](N)CCCCN)C(=O)N[C@@H](CCCCN)C(=O)O` [KLLKLLLKLWKKLLKLLK]: the MIC in assay [13], in [14], in [15] and in [16] was at least 44.8 µM throughout.
As to `CC[C@H](C)[C@@H]1NC(=O)[C@H](C)NC(=O)[C@H](CC(C)C)NC(=O)[C@@H]2CSSC[C@@H](C(=O)N[C@@H](CCCN=C(N)N)C(=O)N[C@@H](CCCN=C(N)N)C(=O)O)NC(=O)[C@H](C(C)C)NC(=O)[C@@H]3CSSC[C@H](NC(=O)[C@H](CC(C)C)NC(=O)[C@H](CO)NC(=O)[C@H](Cc4cnc[nH]4)NC(=O)[C@H](CC(N)=O)NC(=O)[C@H](C)NC(=O)[C@H](C)NC(=O)[C@H](Cc4ccccc4)NC(=O)CNC(=O)[C@H](CCCCN)NC(=O)[C@H](C)NC(=O)[C@H](CCC(=O)O)NC(=O)[C@H](Cc4ccccc4)NC(=O)[C@H](CO)NC(=O)[C@H](CC(C)C)NC(=O)[C@H](CC(C)C)NC(=O)[C@H](CC(=O)O)NC(=O)[C@@H](NC(=O)[C@@H](NC(=O)[C@@H](N)CC(C)C)[C@@H](C)O)CSSC[C@H](NC(=O)[C@H](C)NC(=O)CNC(=O)CNC(=O)[C@H](CCCCN)NC(=O)[C@H](CCCN=C(N)N)NC(=O)CNC1=O)C(=O)N[C@@H](CCC(N)=O)C(=O)N[C@@H](CC(N)=O)C(=O)NCC(=O)N[C@@H](C(C)C)C(=O)N3)C(=O)N[C@@H](C)C(=O)N[C@@H](C)C(=O)N[C@@H](Cc1cnc[nH]1)C(=O)N2` [LTCDLLSFEAKGFAANHSLCAAHCLAIGRKGGACQNGVCVCRR], the MIC was 0.112 µM in assay [17] and 1.12 µM in [18].
As to `CSCC[C@H](N)C(=O)N[C@@H](C)C(=O)N[C@@H](C)C(=O)N[C@@H](CCCN=C(N)N)C(=O)N[C@@H](C)C(=O)N[C@@H](C)C(=O)N[C@@H](CCCN=C(N)N)C(=O)N[C@@H](CC(C)C)C(=O)N[C@@H](C)C(=O)N[C@@H](C)C(=O)N[C@@H](CCCN=C(N)N)C(=O)N[C@@H](CC(C)C)C(=O)N[C@@H](C)C(=O)N[C@@H](CCCN=C(N)N)C(=O)N[C@@H](CC(C)C)C(=O)N[C@@H](C)C(=O)N[C@@H](CC(C)C)C(=O)N[C@@H](CCCN=C(N)N)C(=O)N[C@@H](C)C(=O)N[C@@H](CC(C)C)C(=O)O` [MAARAARLAARLARLALRAL], the MIC against Fusarium oxysporum worked out at 0.1 µM (≈ 0.214 µg/mL); against Carnobacterium mobile, 0.0025 µM (≈ 0.00534 µg/mL).
In the case of `CC[C@H](C)[C@H](NC(=O)CNC(=O)[C@H](CCCCN)NC(=O)[C@H](CC(C)C)NC(=O)[C@H](CCSC)NC(=O)[C@H](CC(N)=O)NC(=O)[C@H](CCCCN)NC(=O)[C@H](Cc1c[nH]c2ccccc12)NC(=O)[C@H](CC(C)C)NC(=O)[C@H](C)N)C(=O)NCC(=O)N[C@@H](CCCCN)C(=O)N[C@@H](CC(C)C)C(=O)N[C@@H](C)C(=O)NCC(N)=O` [ALWKNMLKGIGKLAG], the MIC in [19] is 3 µM (≈ 4.8 µg/mL); in [20], 30 µM (≈ 48 µg/mL); against Escherichia coli IP76-24 it was 3 µM (≈ 4.8 µg/mL); in [21], 10 µM (≈ 16 µg/mL); in assay [22], at least 150 µM; in [23], at least 150 µM. Further, the MIC in assay [24] is 20 µM (≈ 32 µg/mL); in assay [25], 3 µM (≈ 4.8 µg/mL); in [26], 3 µM (≈ 4.8 µg/mL); in assay [27], at least 40 µM; in [28], 20 µM (≈ 32 µg/mL).
As to `CC[C@H](C)[C@H](NC(=O)[C@H](C)N)C(=O)N[C@@H](Cc1ccccc1)C(=O)N[C@H](C(=O)N[C@@H](Cc1ccccc1)C(=O)N[C@H](C(=O)N[C@@H](CCCN=C(N)N)C(=O)N[C@@H](Cc1c[nH]c2ccccc12)C(=O)N[C@@H](CC(C)C)C(=O)N[C@@H](CC(C)C)C(=O)N[C@@H](CCCCN)C(=O)N[C@@H](CC(C)C)C(=O)NCC(=O)N[C@@H](Cc1cnc[nH]1)C(=O)N[C@@H](Cc1cnc[nH]1)C(=O)NCC(=O)N[C@@H](CCCN=C(N)N)C(=O)N[C@@H](C)C(=O)N1CCC[C@H]1C(=O)N1CCC[C@H]1C(=O)O)[C@@H](C)CC)[C@@H](C)CC` [AIFIFIRWLLKLGHHGRAPP], the MIC in [29] is at least 128 µM; in assay [30], 4 µM (≈ 9.37 µg/mL); in assay [17], 2 µM (≈ 4.69 µg/mL); in assay [31], at least 128 µM; in assay [32], at least 128 µM; in assay [33], 8 µM (≈ 18.7 µg/mL). Further, the MIC in [34] was at least 128 µM; in [35] it was at least 128 µM; in assay [36] it was 16 µM (≈ 37.5 µg/mL); in assay [37], at least 128 µM.
